Activity calls are given as the source filed them.
Legend:
[1] = biological target: T1, Apoptotic protease-activating factor 1 (Homo sapiens, UniProt O14727); assay type: functional
T1 sequence (O14727 whole entry): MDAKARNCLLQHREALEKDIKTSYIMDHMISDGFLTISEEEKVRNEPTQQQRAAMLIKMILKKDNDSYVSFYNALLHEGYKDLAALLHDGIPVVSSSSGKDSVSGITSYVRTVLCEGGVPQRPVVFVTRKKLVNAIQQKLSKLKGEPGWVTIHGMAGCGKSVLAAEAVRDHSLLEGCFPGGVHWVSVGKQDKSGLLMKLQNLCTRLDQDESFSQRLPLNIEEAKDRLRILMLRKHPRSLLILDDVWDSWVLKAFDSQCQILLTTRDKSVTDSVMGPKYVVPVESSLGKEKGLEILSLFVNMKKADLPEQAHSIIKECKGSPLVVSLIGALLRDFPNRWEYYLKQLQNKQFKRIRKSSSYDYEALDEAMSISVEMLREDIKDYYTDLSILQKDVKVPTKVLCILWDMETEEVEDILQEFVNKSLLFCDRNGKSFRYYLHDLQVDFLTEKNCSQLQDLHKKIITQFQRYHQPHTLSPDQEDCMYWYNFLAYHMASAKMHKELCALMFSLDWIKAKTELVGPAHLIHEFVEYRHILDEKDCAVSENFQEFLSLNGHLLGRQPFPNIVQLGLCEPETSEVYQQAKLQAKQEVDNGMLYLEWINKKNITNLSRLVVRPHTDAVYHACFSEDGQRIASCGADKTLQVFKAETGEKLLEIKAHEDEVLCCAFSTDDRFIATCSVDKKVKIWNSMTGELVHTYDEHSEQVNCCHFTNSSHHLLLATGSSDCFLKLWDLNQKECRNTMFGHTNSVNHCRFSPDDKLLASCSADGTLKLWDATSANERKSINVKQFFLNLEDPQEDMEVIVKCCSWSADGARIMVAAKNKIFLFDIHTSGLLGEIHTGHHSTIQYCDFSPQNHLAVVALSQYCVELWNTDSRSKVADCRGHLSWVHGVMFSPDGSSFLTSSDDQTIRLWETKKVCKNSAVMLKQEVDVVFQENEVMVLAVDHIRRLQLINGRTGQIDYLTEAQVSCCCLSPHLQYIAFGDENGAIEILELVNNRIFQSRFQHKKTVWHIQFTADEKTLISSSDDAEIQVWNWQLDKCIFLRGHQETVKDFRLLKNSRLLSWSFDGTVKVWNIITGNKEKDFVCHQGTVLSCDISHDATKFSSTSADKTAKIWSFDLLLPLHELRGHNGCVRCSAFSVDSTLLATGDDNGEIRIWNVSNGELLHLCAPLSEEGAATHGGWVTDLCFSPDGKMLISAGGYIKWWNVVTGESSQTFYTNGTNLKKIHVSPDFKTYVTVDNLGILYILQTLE

[2] = biological target: T2, Histone-lysine N-methyltransferase NSD2 (Homo sapiens, UniProt O96028); assay type: biochemical
T2 sequence (O96028 whole entry): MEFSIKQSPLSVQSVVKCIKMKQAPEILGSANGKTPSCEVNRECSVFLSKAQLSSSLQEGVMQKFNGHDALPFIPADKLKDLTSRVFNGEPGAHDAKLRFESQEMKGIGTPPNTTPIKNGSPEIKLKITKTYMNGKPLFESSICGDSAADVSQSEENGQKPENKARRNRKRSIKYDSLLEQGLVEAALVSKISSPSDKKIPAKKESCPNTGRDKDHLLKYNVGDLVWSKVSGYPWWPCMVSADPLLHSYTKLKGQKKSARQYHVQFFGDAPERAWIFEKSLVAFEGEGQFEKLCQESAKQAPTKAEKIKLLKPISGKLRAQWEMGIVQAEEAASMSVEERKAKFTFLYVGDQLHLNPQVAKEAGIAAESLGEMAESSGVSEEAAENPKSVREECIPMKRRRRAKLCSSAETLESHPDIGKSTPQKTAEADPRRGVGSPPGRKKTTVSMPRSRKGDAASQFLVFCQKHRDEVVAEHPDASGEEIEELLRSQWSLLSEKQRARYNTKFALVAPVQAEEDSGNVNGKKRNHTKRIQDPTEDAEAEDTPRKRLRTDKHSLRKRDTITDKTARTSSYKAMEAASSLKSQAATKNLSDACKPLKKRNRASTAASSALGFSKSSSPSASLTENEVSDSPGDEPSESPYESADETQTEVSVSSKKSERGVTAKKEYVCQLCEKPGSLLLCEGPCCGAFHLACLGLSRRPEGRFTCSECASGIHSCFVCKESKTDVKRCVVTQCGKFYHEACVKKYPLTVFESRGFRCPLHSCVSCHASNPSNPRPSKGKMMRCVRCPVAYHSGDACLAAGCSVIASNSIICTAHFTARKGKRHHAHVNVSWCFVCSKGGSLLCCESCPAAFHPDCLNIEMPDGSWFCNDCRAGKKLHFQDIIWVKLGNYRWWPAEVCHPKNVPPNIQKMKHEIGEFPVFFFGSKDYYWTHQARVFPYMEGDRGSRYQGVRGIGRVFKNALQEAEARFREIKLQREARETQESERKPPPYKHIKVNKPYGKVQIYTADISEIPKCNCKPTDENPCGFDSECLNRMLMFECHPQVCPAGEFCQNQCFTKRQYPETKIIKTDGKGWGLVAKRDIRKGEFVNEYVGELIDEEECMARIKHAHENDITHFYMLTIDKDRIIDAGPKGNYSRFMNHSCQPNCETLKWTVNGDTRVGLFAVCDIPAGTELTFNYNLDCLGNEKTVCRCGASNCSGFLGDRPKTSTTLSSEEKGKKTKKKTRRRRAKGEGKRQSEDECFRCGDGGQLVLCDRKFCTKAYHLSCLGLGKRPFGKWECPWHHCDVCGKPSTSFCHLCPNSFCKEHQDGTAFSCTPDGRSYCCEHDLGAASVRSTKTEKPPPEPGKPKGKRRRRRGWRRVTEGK

[3] = biological target: T3, Heat shock factor protein 1 (Mus musculus, UniProt P38532); assay: HSF1 potentiators in luciferase reporter cells, confirmation, cell-based, NIH3T3, luminescence, dose retest (AID 435004); assay type: functional;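 further: stress induced by proteasome inhibitor MG132 added 30 min after compound; luciferase reporter driven by HSF1 response element in NIH3T3 cells; actives raise luminescence as potentiators of the MG132 stress response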
T3 sequence (P38532 whole entry): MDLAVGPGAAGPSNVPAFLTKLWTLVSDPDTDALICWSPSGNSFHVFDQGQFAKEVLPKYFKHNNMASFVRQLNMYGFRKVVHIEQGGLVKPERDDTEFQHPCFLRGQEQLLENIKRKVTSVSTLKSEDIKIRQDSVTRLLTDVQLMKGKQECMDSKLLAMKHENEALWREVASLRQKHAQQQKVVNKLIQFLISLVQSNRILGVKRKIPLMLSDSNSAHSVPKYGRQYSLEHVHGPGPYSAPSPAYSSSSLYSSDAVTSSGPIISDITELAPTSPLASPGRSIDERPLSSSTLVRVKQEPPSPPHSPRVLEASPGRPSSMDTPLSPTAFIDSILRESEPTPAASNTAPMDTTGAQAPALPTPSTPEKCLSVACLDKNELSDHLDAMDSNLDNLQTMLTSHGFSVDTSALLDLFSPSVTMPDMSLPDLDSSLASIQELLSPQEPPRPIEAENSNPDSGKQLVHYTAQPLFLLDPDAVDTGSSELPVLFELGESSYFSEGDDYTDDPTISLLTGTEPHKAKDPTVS

Structure (SMILES) | IC50 [1] | AC50 [2] | EC50 [3]
CCCCn1c(NC(=O)c2ccccc2Cl)c(C#N)c2nc3ccccc3nc21 | 13.7 µM (active) | 2.68 µM (active) | 
O=C1C=C(N(CCO)Cc2ccccc2)c2ccccc2C1=O |  | 1.2 µM (active) | 
CCc1ccc(OCC(=O)N/N=C2\CC(=O)c3ccccc32)cc1 | 18.5 µM (active) |  | 
O=C1c2cc(F)ccc2-n2c1nc1ccccc1c2=O | 3.8 µM (active) |  | 
CCOC(=O)C1=C(c2ccc(OC)cc2)C(=O)c2ccccc2C1=O |  |  | 52.2 µM (active)
CCC(=O)OCCNc1cc(Sc2nccn2C)c2nonc2c1[N+](=O)[O-] |  |  | 4.5 µM (active)
O=C1C(=O)c2ccccc2-c2ccccc21 [9,10-PHENANTHRENEQUINONE] | 0.549 µM (active) |  | 
COCCCNC(=O)c1ccc2c3c(onc13)-c1ccccc1C2=O | 15.7 µM (active) | > 20 µM (inactive) | 3.48 µM (active)

From ChEMBL document CHEMBL1201862, “PubChem BioAssay data set” (2004)
